What all share (assay): relative viability (nuclei count vs DMSO), 5 days (fraction); higher = more cells survive
Compound in the test “Linsitinib + Navitoclax”: C[C@]1(O)C[C@@H](c2nc(-c3ccc4ccc(-c5ccccc5)nc4c3)c3c(N)nccn32)C1 [Linsitinib] + CC1(C)CCC(c2ccc(Cl)cc2)=C(CN2CCN(c3ccc(C(=O)NS(=O)(=O)c4ccc(N[C@H](CCN5CCOCC5)CSc5ccccc5)c(S(=O)(=O)C(F)(F)F)c4)cc3)CC2)C1 [Navitoclax] (partner 0.5 µM)
The essentials: (§1)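 Relative viability divides the nuclei count in treated wells by that in vehicle wells. Lung cancer cell lines were seeded in 1536-well plates, dosed by pin tool the next day, and fixed and stained after 5 days in one step with final 0.05% Triton X-100, 1% formaldehyde and 1 ug/ml Hoechst. Dosing was a single drug or a fixed anchor-drug dose plus five library-drug doses (not always all listed) in √10 steps, and values are medians of duplicate plates imaged at 4×.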

Compound in the test “Linsitinib + Palbociclib”: C[C@]1(O)C[C@@H](c2nc(-c3ccc4ccc(-c5ccccc5)nc4c3)c3c(N)nccn32)C1 [Linsitinib] + CC(=O)c1c(C)c2cnc(Nc3ccc(N4CCNCC4)cn3)nc2n(C2CCCC2)c1=O [Palbociclib] (partner 0.5 µM)
The essentials: as §1

Compound in the test “Ispinesib + Vorinostat”: Cc1ccc(C(=O)N(CCCN)[C@@H](c2nc3cc(Cl)ccc3c(=O)n2Cc2ccccc2)C(C)C)cc1 [Ispinesib] + O=C(CCCCCCC(=O)Nc1ccccc1)NO [Vorinostat] (partner 1 µM)
A digest of the protocol:
as §1

Compound in the test “Linsitinib + Alpelisib”: C[C@]1(O)C[C@@H](c2nc(-c3ccc4ccc(-c5ccccc5)nc4c3)c3c(N)nccn32)C1 [Linsitinib] + Cc1nc(NC(=O)N2CCC[C@H]2C(N)=O)sc1-c1ccnc(C(C)(C)C(F)(F)F)c1 [Alpelisib] (partner 2 µM)
A digest of the protocol:
as §1

In the case of UMC-11, the relative viability is 0.317 in the test with Linsitinib + Navitoclax (first compound 0.01 µM); 0.301 with Linsitinib + Navitoclax (first compound 0.03162 µM); 0.315 in the test with Linsitinib + Navitoclax (first compound 0.1 µM); 0.302 in the test with Linsitinib + Navitoclax (first compound 1 µM); 0.303 with Linsitinib + Palbociclib (first compound 0.01 µM); 0.301 in the test with Linsitinib + Palbociclib (first compound 0.03162 µM). In addition, the relative viability with Linsitinib + Palbociclib (first compound 0.1 µM) came out at 0.33; in the test with Linsitinib + Palbociclib (first compound 0.3162 µM) it was 0.322; with Linsitinib + Palbociclib (first compound 1 µM) it was 0.332; with Ispinesib + Vorinostat (first compound 0.001 µM) it was 0.308; with Ispinesib + Vorinostat (first compound 0.003162 µM) it was 0.459; with Ispinesib + Vorinostat (first compound 0.01 µM), 0.327. The relative viability stood at 0.281 with Ispinesib + Vorinostat (first compound 0.03162 µM); 0.319 with Ispinesib + Vorinostat (first compound 0.1 µM); 0.958 with Linsitinib + Alpelisib (first compound 0.01 µM); 0.951 in the test with Linsitinib + Alpelisib (first compound 0.03162 µM); 0.961 with Linsitinib + Alpelisib (first compound 0.1 µM); 0.969 in the test with Linsitinib + Alpelisib (first compound 1 µM).

The values above are taken from the supplement of paper PMC10307832.
